Reference: US10835505B2, “Oral pharmaceutical formulation for weight loss, diabetes and related disorders” (priority 2018, dated 2020)
Where a name gives a salt, the structure may show the parent alone.

How the values were obtained:
[1] = system: TAS2R subtypes; conditions: cited from earlier work
[2] = in vivo; cited from earlier work
[3] = acute food intake inhibition study, oral gavage, Sprague Dawley rats; assay type: in vivo
Source text: In a short-term food intake inhibition study, in Sprague Dawley rats the doses of DB administered were 7.5, 15, 30, and 60 μmol/kg. The corresponding human equivalent doses (HED) are be 1.2, 2.4, 4.9, 9.7 μmol/kg, respectively. In a longer-term food intake inhibition study in C57BL/6NTac mice the dose of DB used was 60 μmol/kg. The corresponding HED was 4.9 μmol/kg. […] Therefore, the disclosed formulation provides a dose of DB from about 500 nmol/kg to about […], which corresponds to from about 10 mg to about 200 mg for a human adult.
This example provides the results of an oral dose rat gavage study, measuring food and water intake following administration of a disclosed formulation by gavage. We conducted an acute food intake inhibition study of DB in Sprague Dawley rats.
For a longer term study, in view of the foregoing acute study findings, the effect of a combination of components was investigated. To ensure the adequate effect of the DB combination, 60 μmol/kg (26.8 mg/kg) once daily for DB in the first two weeks of the study was used, and then switched to twice daily in the last two weeks of the study.

[4] = C57BL/6 DIO mice, 60 μmol/kg DB (26.8 mg/kg) once daily, 28-day period, vs vehicle; cited from earlier work
[5] = normal C57BL/6 mice, oral DB only at 60 μmol/kg (26.8 mg/kg); cited from earlier work
[6] = healthy volunteers, 1 μmol/kg DB; cited from earlier work
[7] = judged, times more bitter than denatonium benzoate; cited from earlier work

In the case of O=C(/C=C/c1ccc(O)c(O)c1)O[C@@H]1C[C@]2(O)C[C@@H](OC2=O)[C@@H]1O [3-CQL, (1R,3R,4R,5R)-1,4-Dihydroxy-7-oxo-6-oxabicyclo[3.2.1]oct-3-yl (2E)-3-(3,4-dihydroxyphenyl)acrylate], the “number of TAS2R subtypes activated” value [1] is listed as “eight”.
For CN1CCc2cccc3c2[C@H]1Cc1ccc(O)c(O)c1-3 [Apomorphine, (6aR)-5,6,6a,7-Tetrahydro-6-methyl-4H-dibenzo(de,g)chinolin-10,11-diol hydrochlorid], the oral availability [2] is given as roughly 4%.
In the case of CC[N+](CC)(CC(=O)Nc1c(C)cccc1C)Cc1ccccc1.O=C([O-])c1ccccc1 [DB, benzyl-[2-(2,6-dimethylanilino)-2-oxoethyl]-diethylazanium benzoate], the food intake ([3]; Sprague Dawley rats, various doses of DB by gavage, within the first 6 h after administration) is listed as “significantly inhibited food intake”, the half-life ([3]; rat, in vivo, oral, inferred from duration of food intake inhibition in Sprague Dawley rats) is listed as 6 h and the body weight [4] is listed as “induced a decrease in body weight”. For the same compound, the gastric emptying rate [5] was “significantly inhibited gastric emptying rate”, the nutrient volume tolerance [6] was “decreased nutrient volume tolerance” and the satiation [6] was “increased satiation”. For the same compound, the “number of TAS2R subtypes activated” value [1] was “eight”.
For C=C[C@H]1C[N@]2CC[C@H]1C[C@H]2[C@H](O)c1ccnc2ccc(OC)cc12 [Quinine, (R)-[(2S,4S,5R)-5-ethenyl-1-azabicyclo[2.2.2]octan-2-yl]-(6-methoxyquinolin-4-yl)methanol, reference compound], the “number of TAS2R subtypes activated” value [1] is listed as “nine”.
For CC[N+](CC)(CC(=O)Nc1c(C)cccc1C)Cc1ccccc1 [denatonium saccharide, benzyl-[2-(2,6-dimethylanilino)-2-oxoethyl]-diethylazanium; 1,1-dioxo-1,2-benzothiazol-3-olate], the “bitterness relative to denatonium benzoate” value [7] is given as 5 times.
